Laboratory results as given in ChEMBL document CHEMBL1201861, “Genomics of Drug Sensitity in Cancer screening data, Wellcome Trust Sanger Institute”.

What was measured:
Assay in all cases: cells
Format in all cases: functional, cell-based, Homo sapiens
CAL-54 = settings: Homo sapiens, CAL-54;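 note: growth inhibition of CAL-54 cells, read out by a viability measurement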
Description: SANGER: Inhibition of human CAL-54 cell growth in a cell viability assay.

NCI-H64 = settings: Homo sapiens, NCI-H64;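 note: growth inhibition of NCI-H64 cells, read out with a cell viability assay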
Description: SANGER: Inhibition of human NCI-H64 cell growth in a cell viability assay.

COLO-792 = settings: Homo sapiens, COLO-792
Description: SANGER: Inhibition of human COLO-792 cell growth in a cell viability assay.

G-401 = settings: Homo sapiens, G-401
Description: SANGER: Inhibition of human G-401 cell growth in a cell viability assay.

NB1 = settings: Homo sapiens, NB1;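 note: reduction of NB1 cell proliferation, read out with a viability assay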
Description: SANGER: Inhibition of human NB1 cell growth in a cell viability assay.

NCI-H2122 = settings: Homo sapiens, NCI-H2122;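 note: growth inhibition of the cells, read out with a cell viability assay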
Description: SANGER: Inhibition of human NCI-H2122 cell growth in a cell viability assay.

GMS-10 = settings: Homo sapiens, GMS-10;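 note: growth inhibition of GMS-10 cells, read out as cell viability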
Description: SANGER: Inhibition of human GMS-10 cell growth in a cell viability assay.

EHEB = settings: Homo sapiens, EHEB;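 note: growth inhibition of human EHEB cells, read out with a cell viability assay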
Description: SANGER: Inhibition of human EHEB cell growth in a cell viability assay.

NCI-H2196 = settings: Homo sapiens, NCI-H2196;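 note: cell viability assay used as the readout of growth inhibition in NCI-H2196 cells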
Description: SANGER: Inhibition of human NCI-H2196 cell growth in a cell viability assay.

HT55 = settings: Homo sapiens, HT55;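 note: cell viability readout measuring growth inhibition of human HT55 cells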
Description: SANGER: Inhibition of human HT55 cell growth in a cell viability assay.

HN = settings: Homo sapiens, HN
Description: SANGER: Inhibition of human HN cell growth in a cell viability assay.

NCI-H1623 = settings: Homo sapiens, NCI-H1623;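 note: cell viability assay used as the read-out for growth inhibition of NCI-H1623 cells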
Description: SANGER: Inhibition of human NCI-H1623 cell growth in a cell viability assay.

OE19 = settings: Homo sapiens, OE19;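 note: growth inhibition of OE19 cells, measured through a cell viability read-out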
Description: SANGER: Inhibition of human OE19 cell growth in a cell viability assay.

NCI-H522 = settings: Homo sapiens, NCI-H522;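 note: cell viability assay measuring growth inhibition of human NCI-H522 cells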
Description: SANGER: Inhibition of human NCI-H522 cell growth in a cell viability assay.

CaR-1 = settings: Homo sapiens, CaR-1;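 note: growth inhibition of human CaR-1 cancer cells, read out with a cell viability assay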
Description: SANGER: Inhibition of human CaR-1 cell growth in a cell viability assay.

KYSE-180 = settings: Homo sapiens, KYSE-180;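 note: growth inhibition of KYSE-180 cells, read out with a cell viability assay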
Description: SANGER: Inhibition of human KYSE-180 cell growth in a cell viability assay.

FaDu = settings: Homo sapiens, FaDu;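 note: cell viability readout of growth inhibition in FaDu cells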
Description: SANGER: Inhibition of human FADU cell growth in a cell viability assay.

Capan-2 = settings: Homo sapiens, Capan-2;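 note: Capan-2 cell growth inhibition, read out with a viability assay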
Description: SANGER: Inhibition of human Capan-2 cell growth in a cell viability assay.

KYSE-450 = settings: Homo sapiens, KYSE-450;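 note: cell growth inhibition measured by a viability assay in human KYSE-450 cells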
Description: SANGER: Inhibition of human KYSE-450 cell growth in a cell viability assay.

T-24 = settings: Homo sapiens, T-24;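 note: growth inhibition of T-24 cells, read out with a cell viability assay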
Description: SANGER: Inhibition of human T-24 cell growth in a cell viability assay.

HOS = settings: Homo sapiens, HOS;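 note: growth inhibition of human HOS cells, read out with a cell viability assay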
Description: SANGER: Inhibition of human HOS cell growth in a cell viability assay.

CAL-12T = settings: Homo sapiens, CAL-12T;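 note: growth inhibition of human CAL-12T cells, read out with a cell viability assay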
Description: SANGER: Inhibition of human CAL-12T cell growth in a cell viability assay.

MDA-MB-157 = settings: Homo sapiens, MDA-MB-157
Description: SANGER: Inhibition of human MDA-MB-157 cell growth in a cell viability assay.

NCI-H2141 = settings: Homo sapiens, NCI-H2141;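 note: growth inhibition of human NCI-H2141 cells, read out with a cell viability assay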
Description: SANGER: Inhibition of human NCI-H2141 cell growth in a cell viability assay.

NCI-H460 = settings: Homo sapiens, NCI-H460;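 note: cell viability assay scoring growth inhibition of human NCI-H460 cells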
Description: SANGER: Inhibition of human NCI-H460 cell growth in a cell viability assay.

RVH-421 = settings: Homo sapiens, RVH-421
Description: SANGER: Inhibition of human RVH-421 cell growth in a cell viability assay.

DMS-153 = settings: Homo sapiens, DMS-153
Description: SANGER: Inhibition of human DMS-153 cell growth in a cell viability assay.

DMS-273 = settings: Homo sapiens, DMS-273
Description: SANGER: Inhibition of human DMS-273 cell growth in a cell viability assay.

Hs-578T = settings: Homo sapiens, Hs-578T
Description: SANGER: Inhibition of human Hs-578-T cell growth in a cell viability assay.

SNU-16 = settings: Homo sapiens, SNU-16;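 note: growth inhibition of human SNU-16 cells, determined with a cell viability readout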
Description: SANGER: Inhibition of human NCI-SNU-16 cell growth in a cell viability assay.

ChaGo-K-1 = settings: Homo sapiens, ChaGo-K-1;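 note: growth inhibition of ChaGo-K-1 cells, read out with a cell viability assay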
Description: SANGER: Inhibition of human ChaGo-K-1 cell growth in a cell viability assay.

NCI-H1792 = settings: Homo sapiens, NCI-H1792;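 note: growth inhibition of human NCI-H1792 cells, read out as cell viability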
Description: SANGER: Inhibition of human NCI-H1792 cell growth in a cell viability assay.

SW-620 = settings: Homo sapiens, SW-620;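 note: growth inhibition of human SW-620 cells, measured by a cell viability assay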
Description: SANGER: Inhibition of human SW620 cell growth in a cell viability assay.

WSU-NHL = settings: Homo sapiens, WSU-NHL;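 note: growth inhibition of human WSU-NHL cells, read out with a cell viability assay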
Description: SANGER: Inhibition of human WSU-NHL cell growth in a cell viability assay.

NCI-H1693 = settings: Homo sapiens, NCI-H1693;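 note: growth inhibition of the human cell line, read out with a cell viability assay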
Description: SANGER: Inhibition of human NCI-H1693 cell growth in a cell viability assay.

KARPAS-422 = settings: Homo sapiens, KARPAS-422
Description: SANGER: Inhibition of human KARPAS-422 cell growth in a cell viability assay.

NCI-H1703 = settings: Homo sapiens, NCI-H1703;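 note: growth inhibition of NCI-H1703 cells, read out via a cell viability assay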
Description: SANGER: Inhibition of human NCI-H1703 cell growth in a cell viability assay.

A2780 = settings: Homo sapiens, A2780;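 note: growth inhibition of A2780 cells, read out with a cell viability assay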
Description: SANGER: Inhibition of human A2780 cell growth in a cell viability assay.

HCC1954 = settings: Homo sapiens, HCC1954;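 note: growth inhibition of human HCC1954 cells, read out with a cell viability assay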
Description: SANGER: Inhibition of human HCC1954 cell growth in a cell viability assay.

HT-1080 = settings: Homo sapiens, HT-1080
Description: SANGER: Inhibition of human HT-1080 cell growth in a cell viability assay.

COLO-680N = settings: Homo sapiens, COLO-680N;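 note: cell viability assay used to measure inhibition of COLO-680N cell growth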
Description: SANGER: Inhibition of human COLO-680N cell growth in a cell viability assay.

SK-OV-3 = settings: Homo sapiens, SK-OV-3;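 note: growth inhibition of SK-OV-3 human cells, read out with a cell viability assay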
Description: SANGER: Inhibition of human SK-OV-3 cell growth in a cell viability assay.

BC-3 = settings: Homo sapiens, BC-3;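 note: cell viability assay measuring growth inhibition of human BC-3 cells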
Description: SANGER: Inhibition of human BC-3 cell growth in a cell viability assay.

LU-165 = settings: Homo sapiens, LU-165
Description: SANGER: Inhibition of human LU-165 cell growth in a cell viability assay.

MC-IXC = settings: Homo sapiens, MC-IXC;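 note: growth inhibition of MC-IXC cells, read out with a cell viability assay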
Description: SANGER: Inhibition of human MC-IXC cell growth in a cell viability assay.

UMUC3 = settings: Homo sapiens, UMUC3;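 note: growth inhibition of human UM-UC-3 cells, read out with a cell viability assay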
Description: SANGER: Inhibition of human UM-UC-3 cell growth in a cell viability assay.

Measured: IC50

C=C(c1ccc(C(=O)O)cc1)c1cc2c(cc1C)C(C)(C)CCC2(C)C [BEXAROTENE]
5.03 µM: KYSE-180
4.94 µM: NCI-H2122
7.97 µM: MC-IXC
3.96 µM: CAL-12T
> 8 µM: all other assays above

CCC/C=C/C=C/C(=O)O[C@H]1/C(=C/C(=O)OC)C[C@H]2C[C@H]([C@@H](C)O)OC(=O)C[C@H](O)C[C@@H]3C[C@H](OC(C)=O)C(C)(C)[C@](O)(C[C@@H]4C/C(=C/C(=O)OC)C[C@H](/C=C/C(C)(C)[C@]1(O)O2)O4)O3 [BRYOSTATIN 1]
> 0.008 µM: all assays above
